The assay addresses T1, BRD4 (Homo sapiens, UniProt O60885).
T1 construct: BD1 (BRD4(1), first bromodomain)
The experiment in a line: BROMOscan bromodomain competition binding assay with qPCR readout. On the technique in general: In qPCR the cycle at which signal appears reflects the starting amount.

The values that follow come from PMC11677465, “Development of a PET Probe Targeting Bromodomain and Extra-Terminal Proteins for In Vitro and In Vivo Visualization” (Pharmaceuticals, 2024).

Molecules are shown by their SMILES.

As to `COc1cc2c(cc1-c1c(C)nn(C)c1C)ncc1nc(C)n([C@H](C)c3ccccc3)c12` [YL10, (R)-8-methoxy-2-methyl-1-(1-phenylethyl)-7-(1,3,5-trimethyl-1H-pyrazol-4-yl)-1H-imidazo[4,5-c]quinoline], binding was characterised by a dissociation constant (Kd) of 480 nM.
